# Test results from the supplement of paper PMC10307832.
# Tests used:
# Test in all cases: relative viability (nuclei count vs DMSO), 5 days (fraction); higher = more cells survive
# [1] = compound: CC(C)C[C@H](NC(=O)[C@H](Cc1ccccc1)NC(=O)c1cnccn1)B(O)O [Bortezomib] + C[C@]1(O)C[C@@H](c2nc(-c3ccc4ccc(-c5ccccc5)nc4c3)c3c(N)nccn32)C1 [Linsitinib] (partner 1 µM)
# Procedure, shortened: (§1)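 Each reported value is a median over duplicate plates. It expresses relative viability: treated-well nuclei count divided by vehicle-well nuclei count. Lung cancer cell lines in 1536-well plates were dosed by pin tool a day after seeding, alone with one drug or with a fixed anchor-drug dose plus five library-drug doses (not always all listed) in √10 steps, and nuclei were counted after 5 days.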
# [2] = compound: CC1=CC(=NN1)NC2=CC(=NC(=N2)/C=C/C3=CC=CC=C3)N4CCN(CC4)C + C[C@@H](Oc1cc(-c2cnn(C3CCNCC3)c2)cnc1N)c1c(Cl)ccc(F)c1Cl [Crizotinib] (partner 1 µM)
# Procedure, shortened: as §1
# [3] = compound: CC1=CC(=NN1)NC2=CC(=NC(=N2)/C=C/C3=CC=CC=C3)N4CCN(CC4)C + Nc1nc2[nH]cc(CCc3ccc(C(=O)N[C@@H](CCC(=O)O)C(=O)O)cc3)c2c(=O)[nH]1 [Pemetrexed] (partner 0.2 µM)
# Procedure, shortened: as §1
# [4] = compound: COC1=CC(c2cc3ccccc3[nH]2)=N/C1=C\c1[nH]c(C)cc1C [Obatoclax] + Cc1cc(Nc2cc(N3CCN(C)CC3)nc(Sc3ccc(NC(=O)C4CC4)cc3)n2)n[nH]1 [Tozasertib] (partner 0.1 µM)
# Procedure, shortened: as §1
Cell Line,relative viability ([1]; first compound 0.0002 µM),relative viability ([1]; first compound 0.000632 µM),relative viability ([1]; first compound 0.002 µM),relative viability ([1]; first compound 0.006325 µM),relative viability ([1]; first compound 0.02 µM),relative viability ([2]; first compound 0.08 µM),relative viability ([2]; first compound 0.253 µM),relative viability ([2]; first compound 0.8 µM),relative viability ([2]; first compound 2.53 µM),relative viability ([2]; first compound 8 µM),relative viability ([3]; first compound 0.08 µM),relative viability ([3]; first compound 0.253 µM),relative viability ([3]; first compound 0.8 µM),relative viability ([3]; first compound 2.53 µM),relative viability ([3]; first compound 8 µM),relative viability ([4]; first compound 0.01 µM),relative viability ([4]; first compound 0.03162 µM),relative viability ([4]; first compound 0.1 µM),relative viability ([4]; first compound 0.3162 µM),relative viability ([4]; first compound 1 µM)
HCC-78,0.509,0.394,0.458,0.128,0.18,0.365,0.372,0.352,0.32,0.146,0.804,0.91,0.926,0.938,0.874,0.338,0.404,0.664,0.399,0.344
HCC-366,0.494,0.574,0.677,0.51,0.0152,0.6,0.628,0.357,0.0171,0.01,0.171,0.189,0.187,0.0462,0.0222,0.1,0.117,0.134,0.0528,0.0652
HCC-827,0.913,0.949,0.821,0.896,0.141,0.91,0.999,0.877,0.636,0.381,0.159,0.241,0.262,0.266,0.171,0.389,0.418,0.44,0.412,0.411
HOP-62,1.04,1.02,0.352,0.465,0.052,0.985,0.963,0.979,0.706,0.229,0.364,0.328,0.288,0.294,0.182,0.357,0.343,0.353,0.393,0.299
IA-LM,0.907,0.682,0.577,0.161,0.0151,,0.899,0.884,0.38,0.0798,,,,,,,,,,
LC-2-ad,0.798,,0.811,0.151,0.127,0.475,0.469,0.365,0.303,0.186,0.263,0.266,0.269,0.187,0.143,0.465,0.422,0.44,0.387,0.355
LCLC-97TM1,0.187,0.17,0.14,0.146,0.111,0.381,0.352,0.292,0.152,0.078,0.186,0.226,0.161,0.164,0.0709,0.268,0.255,0.232,0.215,0.21
NCI-H522,,,,,,,,,,,0.992,0.848,0.957,0.894,0.622,0.656,0.429,0.605,0.545,0.539
NCI-H727,0.354,0.289,0.408,0.189,0.0878,0.856,0.805,0.767,0.348,0.185,,,,,,0.581,0.58,0.755,0.509,0.707
NCI-H1299,1,0.917,1.1,0.452,0.118,0.951,0.938,0.938,0.442,0.222,,,,,,,,,,
NCI-H1395,1.02,0.97,0.463,0.382,0.347,,,,,,0.875,0.814,0.714,0.357,0.233,0.674,0.609,0.64,0.769,0.547
NCI-H1563,1.25,1.25,1.02,0.534,0.466,0.985,0.896,0.904,0.65,0.614,0.76,0.861,0.853,0.592,0.396,,,,,
NCI-H1623,,,,,,,,,,,,,,,,0.428,0.422,0.426,0.451,0.38
NCI-H1648,,,,,,,,,,,0.689,0.803,0.836,0.745,0.47,0.515,0.499,1.01,0.465,0.361
NCI-H1650,,,,,,1.07,1.05,0.63,0.192,0.109,0.37,0.373,0.379,0.268,0.146,0.417,0.358,0.425,0.275,0.266
NCI-H1703,1.07,0.438,0.252,0.0867,0.0799,0.636,0.597,0.339,0.101,0.0884,,,,,,,,,,
NCI-H1792,0.526,0.594,0.352,0.537,0.221,0.942,0.982,0.966,0.815,0.165,0.624,0.888,0.722,0.0892,0.0324,,,,,
NCI-H1793,0.771,0.723,0.808,0.778,0.149,,,,,,0.698,1.03,0.644,0.137,0.0795,0.309,0.393,0.406,0.324,0.297
NCI-H2170,,,,,,1.23,1.13,1.12,0.434,0.16,0.266,0.246,0.248,0.193,0.181,0.759,0.758,0.718,0.715,0.753
NCI-H2342,,,,,,,,,,,0.642,0.81,0.819,0.769,0.473,0.516,0.594,0.656,0.587,0.633
SW 900,,,,,,,,,,,0.469,0.491,0.49,0.407,0.102,0.67,0.571,0.499,0.33,0.281
